Data on 5 molecules can be found in ChEMBL document CHEMBL1143816, “Daptomycin produces an enhanced bactericidal activity compared to ceftriaxone, measured by [3H]choline release in the cerebrospinal fluid, in experimental meningitis due to a penicillin-resistant pneumococcal strain without lysing its cell wall” (2007).

Converted amounts (≈) assume the structure as drawn.

Holding throughout (assay type): functional
Test [1] deals with Streptococcus pneumoniae. In words: Antimicrobial activity against Streptococcus pneumoniae WB4 by broth macrodilution method.
Test [2] has as its system Streptococcus pneumoniae. In words: Antimicrobial activity in Streptococcus pneumoniae WB4 infected New Zealand white rabbit meningitis model assessed as increase in [3H]choline release in CSF at 15 mg/kg after 4 hrs.
In test [3] the test system is Streptococcus pneumoniae. In words: Antimicrobial activity in Streptococcus pneumoniae WB4 infected New Zealand white rabbit meningitis model assessed as decrease in viable cells in CSF at 15 mg/kg after 8 hrs.
Test [4] has as its system Streptococcus pneumoniae. Briefly: Antimicrobial activity in Streptococcus pneumoniae WB4 infected New Zealand white rabbit meningitis model assessed as decrease in viable cells in CSF at 125 mg/kg after 8 hrs.
For test [5], the system named is Streptococcus pneumoniae. Briefly: Antimicrobial activity in Streptococcus pneumoniae WB4 infected New Zealand white rabbit meningitis model assessed as increase in [3H]choline release in CSF at 125 mg/kg after 4 to 6 hrs.

A word on the MIC: it is the least concentration at which growth counts as inhibited. Low readings indicate greater potency, high ones weaker potency. Regarding `CCCCCCCCCC(=O)N[C@@H](Cc1c[nH]c2ccccc12)C(=O)N[C@H](CC(N)=O)C(=O)N[C@@H](CC(=O)O)C(=O)N[C@@H]1C(=O)NCC(=O)N[C@@H](CCCN)C(=O)N[C@@H](CC(=O)O)C(=O)N[C@H](C)C(=O)N[C@@H](CC(=O)O)C(=O)NCC(=O)N[C@H](CO)C(=O)N[C@@H]([C@H](C)CC(=O)O)C(=O)N[C@@H](CC(=O)c2ccccc2N)C(=O)O[C@@H]1C`, it took 0.06 µg/mL (≈ 0.037 µM) to inhibit growth with Streptococcus pneumoniae [1] (MIC). Also, the Activity with Streptococcus pneumoniae [2] was 250 cpm/min. Further, the log10CFU/ml in the test on Streptococcus pneumoniae [3] is on record as -6.64.

As for `CO/N=C(\C(=O)NC1C(=O)N2C(C(=O)O)=C(COC(C)=O)CS[C@H]12)c1csc(N)n1` (single isomer, unassigned) [CEFOTAXIME], the MIC against Streptococcus pneumoniae [1] is 1 µg/mL (≈ 2.2 µM).

As to `CO/N=C(\C(=O)N[C@@H]1C(=O)N2C(C(=O)O)=C(CSc3nc(=O)c(O)nn3C)CS[C@H]12)c1csc(N)n1` [CEFTRIAXONE], the MIC in the test with Streptococcus pneumoniae [1] was 0.5 µg/mL (≈ 0.902 µM). Also, the log10CFU/ml with Streptococcus pneumoniae [4] is -4.04. Further, in the test with Streptococcus pneumoniae [5], the Activity is 2500 cpm/min.

In the test on Streptococcus pneumoniae [1], `COc1c(N2C[C@@H]3CCCN[C@@H]3C2)c(F)cc2c(=O)c(C(=O)O)cn(C3CC3)c12` [MOXIFLOXACIN] registered an MIC of 0.12 µg/mL (≈ 0.299 µM).

As for `CN[C@H](CC(C)C)C(=O)N[C@H]1C(=O)N[C@@H](CC(N)=O)C(=O)N[C@H]2C(=O)N[C@H]3C(=O)N[C@H](C(=O)N[C@H](C(=O)O)c4cc(O)cc(O)c4-c4cc3ccc4O)[C@H](O)c3ccc(c(Cl)c3)Oc3cc2cc(c3O[C@@H]2O[C@H](CO)[C@@H](O)[C@H](O)[C@H]2O[C@H]2C[C@](C)(N)[C@H](O)[C@H](C)O2)Oc2ccc(cc2Cl)[C@H]1O` [VANCOMYCIN], in the test on Streptococcus pneumoniae [1], the MIC worked out at 0.12 µg/mL (≈ 0.0828 µM).
